Literature values in patent US7300682B2, “Method of preparation and use of coconut water in mamalian tissue nourishment growth and healthy maintenance” (Sabinsa Corporation, priority 2000, dated 2007).

System: Abelmoschus esculetus L and Solanum gilo L
Settings: 100 mg/L

## C=C1C[C@]23C[C@@]1(O)CC[C@H]2[C@@]12C=C[C@H](O)[C@@](C)(C(=O)O1)[C@H]2[C@@H]3C(=O)O [GA3, gibberelic acid]
  effect on plant height, yield, chlorophyll and vitamin contents: significantly effective
